Several values for one entry are separate records, joined by “and”; a condition that tells them apart may be missing. Equal values may be shown once.
Tested on: RPMI-8226 cells
Experiment: Gene expression profiling, NanoString nCounter PanCancer Pathways Panel, ROSALIND analysis
Type: cell-based, human
Details: RPMI-8226, TCH-165 samples 1-3
Procedure: RPMI-8226 cells were treated with vehicle or TCH-165 (10 μM) for 4 h. Total RNA was obtained using the mirVana miRNA Isolation Kit, with phenol (Thermofisher Scientific; AM1560; Waltham, MA, USA). Total RNA was quantified by Qubit (Thermofisher Scientific; Q32855; Waltham, MA, USA). and gene expression was evaluated against the nCounter® PanCancer Pathways Panel^TM according to the standard NanoString protocol.
Data were analyzed by ROSALIND® [36] with a hyperscale architecture developed by ROSALIND, Inc. (San Diego, CA, USA). Normalization, fold changes and p-values were calculated using criteria provided by NanoString. ROSALIND follows the nCounter® Advanced Analysis protocol of dividing counts within a lane by the geometric mean of the normalizer probes from the same lane. Housekeeping probes to be used for normalization are selected based on the geNorm algorithm, as implemented in the NormqPCR R library. Fold changes and p-values are calculated using the fast method as described in the nCounter Advanced Analysis 2.0 User Manual. The p-value adjustment is performed using the Benjamini–Hochberg method of estimating false discovery rates (FDR). Clustering of genes for the final heatmap of differentially expressed genes was done using the PAM (Partitioning Around Medoids) method using the fpc R library. Hypergeometric distribution was used to analyze the enrichment of pathways, gene ontology, domain structure and other ontologies. The topGO R library was used to determine local similarities and dependencies between GO terms in order to perform Elim pruning correction. Several database sources were referenced for enrichment analysis, including Interpro [40], NCBI [41], MSigDB [42, 43], REACTOME [44], WikiPathways. Enrichment was calculated relative to a set of background genes relevant to the experiment.

CCOC(=O)[C@]1(c2ccccc2)N=C(c2ccc(OC)cc2)N(Cc2ccccc2)[C@@H]1c1ccc(NCc2ccccc2)cc1 [TCH-165]
LIFR normalized gene expression: 4.488 and 4.2133 and 4.184 | LIG4 normalized gene expression: 6.629 and 6.817 and 6.796 | LRP2 normalized gene expression: 4.308 and 3.657 and 4.341 | LTBP1 normalized gene expression: 6.378 and 6.402 and 6.366 | MAD2L2 normalized gene expression: 10.1336 and 10.1942 and 10.1645 | MAP2K1 normalized gene expression: 10.0208 and 10.0248 and 9.981 | MAP2K2 normalized gene expression: 10.108 and 10.1628 and 10.1486 | MAP2K4 normalized gene expression: 7.169 and 6.524 and 6.893 | MAP2K6 normalized gene expression: 4.924 and 4.855 and 5.0068 | MAP3K1 normalized gene expression: 10.6246 and 10.5002 and 10.4469 | MAP3K5 normalized gene expression: 6.704 and 6.918 and 6.75 | MAP3K8 normalized gene expression: 6.308 and 6.569 and 6.506 | MAP3K12 normalized gene expression: 5.571 and 5.476 and 5.0682 | MAP3K13 normalized gene expression: 7.948 and 7.905 and 8.019 | MAP3K14 normalized gene expression: 7.978 and 7.887 and 7.688 | MAPK1 normalized gene expression: 8.625 and 8.638 and 8.461 | MAPK3 normalized gene expression: 9.736 and 9.67 and 9.676 | MAPK8IP1 normalized gene expression: 5.86 and 4.739 and 5.0068 | MAPK8IP2 normalized gene expression: 4.208 and 3.657 and 4.39 | MAPK8 normalized gene expression: 7.835 and 7.506 and 7.597 | MAPK9 normalized gene expression: 8.658 and 8.617 and 8.437 | MAPK10 normalized gene expression: 5.101 and 4.2133 and 4.876 | MAPK12 normalized gene expression: 7.499 and 7.109 and 7.1906 | MAPT normalized gene expression: 5.355 and 5.351 and 5.5707 | MCM2 normalized gene expression: 10.402 and 10.4329 and 10.4331 | MCM4 normalized gene expression: 11.2136 and 11.1596 and 11.149 | MCM5 normalized gene expression: 10.3105 and 10.197 and 10.1802 | MCM7 normalized gene expression: 13.0908 and 13.0284 and 12.9867 | MDC1 normalized gene expression: 10.2272 and 10.2142 and 10.1897 | MDM2 normalized gene expression: 10.4133 and 10.3393 and 10.3264 | MECOM normalized gene expression: 7.156 and 6.927 and 6.814 | MED12 normalized gene expression: 8.477 and 8.644 and 8.469 | MEN1 normalized gene expression: 9.714 and 9.644 and 9.611 | MET normalized gene expression: 5.924 and 5.093 and 5.613 | MFNG normalized gene expression: 9.115 and 9.16 and 9.044 | MGMT normalized gene expression: 8.108 and 8.085 and 8.034 | MLF1 normalized gene expression: 5.86 and 5.9093 and 5.712 | MLH1 normalized gene expression: 9.392 and 9.378 and 9.34 | MLLT3 normalized gene expression: 6.776 and 6.688 and 6.449 | MLLT4 normalized gene expression: 8.677 and 8.597 and 8.636 | MMP3 normalized gene expression: 4.401 and 3.27 and 4.341 | MMP7 normalized gene expression: 5.571 and 5.242 and 5.238 | MMP9 normalized gene expression: 4.649 and 4.855 and 4.0068 | MNAT1 normalized gene expression: 8.319 and 8.402 and 8.366 | MPL normalized gene expression: 4.308 and 4.154 and 3.805 | MPO normalized gene expression: 4.986 and 4.569 and 4.876 | MSH2 normalized gene expression: 9.884 and 9.976 and 9.945 | MSH6 normalized gene expression: 10.1754 and 9.989 and 10.0455 | MTOR normalized gene expression: 9.008 and 8.985 and 8.893 | MUTYH normalized gene expression: 6.74 and 6.512 and 6.663 | MYB normalized gene expression: 9.142 and 9.166 and 9.1468 | MYC normalized gene expression: 12.5611 and 12.5765 and 12.4952 | MYCN normalized gene expression: 7.142 and 6.817 and 6.893 | MYD88 normalized gene expression: 8.723 and 8.683 and 8.623 | NASP normalized gene expression: 8.252 and 8.093 and 8.307 | NBN normalized gene expression: 10.4814 and 10.4965 and 10.3946 | NCOR1 normalized gene expression: 9.769 and 9.64 and 9.618 | NF1 normalized gene expression: 9.325 and 9.277 and 9.208 | NF2 normalized gene expression: 9.205 and 9.097 and 9.096 | NFATC1 normalized gene expression: 5.355 and 5.427 and 5.461 | NFE2L2 normalized gene expression: 10.2602 and 10.1647 and 10.2373 | NFKB1 normalized gene expression: 8.156 and 8.124 and 8.177 | NFKBIA normalized gene expression: 9.249 and 9.354 and 9.231 | NGFR normalized gene expression: 5.445 and 5.154 and 5.098 | NODAL normalized gene expression: 5.445 and 5.093 and 4.876 | NOG normalized gene expression: 4.208 and 4.739 and 4.653 | NOS3 normalized gene expression: 5.044 and 4.524 and 4.5707 | NOTCH1 normalized gene expression: 8.62 and 8.452 and 8.261 | NOTCH2 normalized gene expression: 10.6545 and 10.568 and 10.5378 | NPM1 normalized gene expression: 7.667 and 7.529 and 7.245 | NPM2 normalized gene expression: 2.401 and 2.739 and 2.805 | NR4A1 normalized gene expression: 6.924 and 6.944 and 6.759 | NR4A3 normalized gene expression: 4.488 and 4.427 and 4.769 | NRAS normalized gene expression: 7.581 and 7.678 and 7.663 | NTF3 normalized gene expression: 7.456 and 7.1988 and 7.251 | NTHL1 normalized gene expression: 9.395 and 9.328 and 9.318 | NTRK1 normalized gene expression: 4.793 and 3.569 and 3.483 | NTRK2 normalized gene expression: 4.793 and 5.093 and 4.5707 | NUMBL normalized gene expression: 5.955 and 5.891 and 5.693 | NUPR1 normalized gene expression: 6.073 and 6.228 and 6.3536 | OSM normalized gene expression: 5.101 and 5.636 and 5.0682 | PAK3 normalized gene expression: 4.488 and 4.27 and 3.876 | PAX3 normalized gene expression: 4.649 and 4.029 and 4.0682 | PAX5 normalized gene expression: 4.986 and 3.962 and 4.693 | PAX8 normalized gene expression: 5.723 and 5.297 and 5.366 | PBRM1 normalized gene expression: 9.417 and 9.5 and 9.432 | PBX1 normalized gene expression: 8.776 and 8.575 and 8.5707 | PBX3 normalized gene expression: 6.53 and 6.427 and 6.426 | PCK1 normalized gene expression: 3.208 and 3.3768 and 3.0682 | PCNA normalized gene expression: 10.03 and 10.0442 and 10.0502

— PMC9138505, “Small Molecule 20S Proteasome Enhancer Regulates MYC Protein Stability and Exhibits Antitumor Activity in Multiple Myeloma” (Biomedicines, 2022)
